# According to ChEMBL document CHEMBL1921682, “Molecular properties prediction and synthesis of novel 1,3,4-oxadiazole analogues as potent antimicrobial and antitubercular agents” (Bioorg Med Chem Lett, 2011):
# System: Mycobacterium tuberculosis
# Test: not given
# Type: functional
row,SMILES,Ratio
1,Cc1c(NCc2nnc(-c3ccncc3)o2)c(=O)n(-c2ccccc2)n1C,7.6
2,Cc1c(NCc2nnc(-c3ccc(N)cc3)o2)c(=O)n(-c2ccccc2)n1C,1.4

# System: Mycobacterium tuberculosis
# Test: microbe, parasite or virus in culture
row,SMILES,MIC90 [µM]
1,Cc1c(NCc2nnc(-c3ccc(Cl)cc3)o2)c(=O)n(-c2ccccc2)n1C,12.7
2,Cc1c(NCc2nnc(Cc3ccccc3)o2)c(=O)n(-c2ccccc2)n1C,> 13.3
3,Cc1c(NCc2nnc(-c3ccncc3)o2)c(=O)n(-c2ccccc2)n1C,1.52
4,Cc1c(NCc2nnc(-c3cccs3)o2)c(=O)n(-c2ccccc2)n1C,13.6
5,NNC(=O)c1ccncc1 [ISONIAZID],11.6
6,Cc1c(NCc2nnc(-c3ccccc3)o2)c(=O)n(-c2ccccc2)n1C,13.8
7,Cc1ccc(-c2nnc(CNc3c(C)n(C)n(-c4ccccc4)c3=O)o2)cc1,13.3
8,Cc1c(NCc2nnc(-c3ccccc3Cl)o2)c(=O)n(-c2ccccc2)n1C,12.7
9,Cc1c(NCc2nnc(COc3ccccc3)o2)c(=O)n(-c2ccccc2)n1C,12.8
10,Cc1c(NCc2nnc(-c3ccc(N)cc3)o2)c(=O)n(-c2ccccc2)n1C,8.29
